Source: US20200179302A1, “USE OF DIPHENOL IN PREPARATION OF MEDICINES FOR PREVENTION AND TREATMENT OF CEREBRAL ISCHEMIA” (XI'AN LIBANG PHARMACEUTICAL CO., LTD, priority 2016, published 2020)

Assays:
[1] = test system: rats with cerebral ischemic reperfusion injury; assay: Cerebral ischemic reperfusion (MCAO, suture method) rat model; type: in vivo; settings: for Relative cerebral infarction volume(%): 40 mg/kg i.v. 30 min before and 12 h after reperfusion, TTC
[2] = test system: permanent cerebral ischemia model rats; assay: Permanent cerebral ischemia (MCAO, suture method) rat model; settings: for Fas average gray scale: gray scale inversely proportional to expression; for Relative cerebral infarction volume(%): 40 mg/kg i.v. 30 min before insertion of thread and 12 h after embolism, TTC
[3] = 40 mg/kg i.v., brain sections, TUNEL

CC1=NN(c2ccccc2)C(=O)C1 [Edaravone injection, edaravone]
Relative cerebral infarct volume (%) ([1]; edaravone 3 mg/kg, 24 h after reperfusion): 29.31 ± 3.95 %
Relative cerebral infarct volume (%) ([2]; edaravone 3 mg/kg, 24 h after embolism): 31.29 ± 4.02 %
Fas average gray scale ([2]; edaravone 3 mg/kg, brain sections): 138.95 ± 5.50
TNF-α content ([2]; edaravone 3 mg/kg, brain tissue homogenate): 5.53 ± 0.54 ng/mL

CC(=O)Oc1c(C(C)C)cc(-c2cc(C(C)C)c(O)c(C(C)C)c2)cc1C(C)C [Example 2, 4′-hydroxy-3,3′,5,5′-tetraisopropylbiphenyl-4-acetate]
Relative cerebral infarction volume(%) ([1]; 24 h after reperfusion): 18.71 ± 4.69 %
Number of apoptotic cells [1, 3]: 19.14 ± 4.24
Fas average gray scale ([1]; 40 mg/kg i.v., brain sections, immunohistochemistry, gray scale inversely proportional to expression): 162.47 ± 3.96
Relative cerebral infarction volume(%) ([2]; 24 h after embolism): 24.71 ± 3.76 %
Number of apoptotic cells [2, 3]: 20.41 ± 5.02
Fas average gray scale ([2]; 40 mg/kg i.v., brain sections, immunohistochemistry): 158.28 ± 6.66

CC(=O)Oc1c(C(C)C)cc(-c2cc(C(C)C)c(OC(C)=O)c(C(C)C)c2)cc1C(C)C [Example 3, 3,3′,5,5′-tetraisopropylbiphenyl-4′-diacetate]
Relative cerebral infarction volume(%) ([1]; 24 h after reperfusion): 23.22 ± 3.12 %
Relative cerebral infarction volume(%) ([2]; 24 h after embolism): 27.92 ± 4.51 %
